{"source": "paper PMC6679423", "about": "(International Journal of Molecular Sciences, 2019)", "format_in_all_cases": "in vitro ADME", "key": {"[1]": {"test_system": "human liver microsomes", "test": "Vandetanib metabolite formation by hepatic microsomes of 12 human donors", "protocol": "Vandetanib was from LC Laboratories (Woburn, MA, USA). Ketoconazole, NADPH, methimazol and other chemicals were all purchased from Sigma-Aldrich (St. Louis, MO, USA). The purity of all chemicals met the standards of American Chemical Society, unless noted otherwise. All animal experiments were conducted in accordance with the Regulations for the Care and Use of Laboratory Animals (311/1997, Ministry of Agriculture, Czech Republic), which follows the Declaration of Helsinki. Male Wistar rats (~125–150 g; AnLab, Czech Republic), male C57BL/6 mice ([…]; CXR Bioscience Ltd., Dundee, UK), and male New Zealand rabbits (2.5–3 kg; AnLab, Czech Republic) were employed as animal models. Animals were placed in cages in temperature- and humidity-controlled rooms, acclimatized for five days and maintained at 22 °C with a 12 h light/dark period. Standardized diet and water were provided ad libitum. Rats, mice and rabbits used to prepare microsomal fraction from untreated animals were sacrificed by cervical dislocation, livers snap-frozen in liquid nitrogen and stored at −80 °C until further processing (see below). For controls, livers of the animals were removed immediately after sacrifice, divided into small pieces (~1 g), snap-frozen in liquid nitrogen, and stored at −80 °C until isolation of microsomal fractions. Pooled microsomes were used for all in vitro experiments in the present study and prepared from 10 livers/group for all animal species following established protocols. Microsomal fractions were stored at −80 °C until analysis. Protein concentrations in the microsomal fractions were assessed using the bicinchoninic acid protein assay with bovine serum albumin as a standard. Male human hepatic microsomes (pooled sample) (sample LOT: 3043885) were from Gentest Corp. (Woburn, MA, USA). Microsomes from livers of twelve human donors were obtained from Gentest Corp. (Woburn, MA, USA) (cat. no. HG43–1, HG103, HG74, HG93, HG24, HG27, HG23, HG32, HK31, HK34, HG03, and HG42). Each human microsomal sample has been characterized for CYP, FMO and protein contents and specific CYP activities by Gentest Corp. We reanalyzed each microsomal preparation for specific CYP, NADPH:CYP reductase (POR) and FMO activities by assays described in the protocols of Gentest Corp. Our data were similar to those reported by Gentest Corp. in their specification sheets. The content of CYP, specific CYP and FMO activities in each human hepatic microsomes [phenacetin-O-deethylation (CYP1A2), coumarin-7-hydroxylation (CYP2A6), (S)-mephenytoin-N-demethylase (CYP2B6), paclitaxel-6α-hydroxylation (CYP2C8), diclofenac-4’-hydroxylation (CYP2C9), (S)-mephenytoin-4′-hydroxylation (CYP2C19), bufuralol-1’-hydroxylation (CYP2D6), chlorzoxazone-6-hydroxylation (CYP2E1), testosterone-6β-hydroxylation (CYP3A4), lauric acid-12-hydroxylation (CYP4A), methyl-p-tolyl sulfide oxidase (FMO)] are shown in Table 2. Human recombinant enzymes were used in the forms of Supersomes™ and obtained from Gentest Corp. In Supersomes™ microsomal fractions were isolated from insect cells that are transfected with baculovirus constructs containing cDNA of human CYP enzymes (CYP1A1/2, 1B1, 2A6, 2B6, 2C8/9/18/19/, 2D6, 2E1, 3A4). These Supersomes™ also express NADPH:CYP oxidoreductase (POR). However, because they are microsomes (particles of broken endoplasmic reticulum), other enzymes (proteins) of the endoplasmic reticulum membrane (like NADH:cytochrome b5 reductase and cytochrome b5) are also expressed at basal levels in these Supersomes™. We also utilized Supersomes™ which over-expressed cytochrome b5, in a molar ratio of CYP to cytochrome b5 of 1 to 5. In Supersomes™ where cytochrome b5 was not over-expressed (see above) pure cytochrome b5 was added to reach a molar ratio of CYP to cytochrome b5 of 1 to 5. Reconstitution of Supersomes™ with purified cytochrome b5 was performed as described previously. […]"}, "[2]": {"molecular_target": "T1, human recombinant CYP2D6 (Homo sapiens, UniProt P10635)", "T1 construct": "purchased Gentest Corp; host or cells: insect cells (baculovirus)", "T1 sequence (P10635 whole entry)": "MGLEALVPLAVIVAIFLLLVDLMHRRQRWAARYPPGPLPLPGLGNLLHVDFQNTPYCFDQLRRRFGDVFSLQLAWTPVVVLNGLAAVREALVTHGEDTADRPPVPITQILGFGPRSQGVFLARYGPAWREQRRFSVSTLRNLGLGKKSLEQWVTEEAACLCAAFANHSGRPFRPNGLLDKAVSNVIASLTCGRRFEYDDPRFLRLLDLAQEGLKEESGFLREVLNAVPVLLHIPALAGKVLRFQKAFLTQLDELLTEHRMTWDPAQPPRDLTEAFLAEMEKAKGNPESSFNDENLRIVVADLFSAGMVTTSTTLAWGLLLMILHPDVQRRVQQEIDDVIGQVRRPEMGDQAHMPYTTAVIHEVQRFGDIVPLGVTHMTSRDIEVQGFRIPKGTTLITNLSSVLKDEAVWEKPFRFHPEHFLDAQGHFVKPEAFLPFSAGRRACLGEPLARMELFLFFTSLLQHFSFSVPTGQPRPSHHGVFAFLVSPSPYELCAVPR", "test": "Vandetanib oxidation by human recombinant CYP2D6 (Supersomes)", "protocol": "The purity of all chemicals met the standards of American Chemical Society, unless noted otherwise. […] Animals were placed in cages in temperature- and humidity-controlled rooms, acclimatized for five days and maintained at 22 °C with a 12 h light/dark period. Standardized diet and water were provided ad libitum. Rats, mice and rabbits used to prepare microsomal fraction from untreated animals were sacrificed by cervical dislocation, livers snap-frozen in liquid nitrogen and stored at −80 °C until further processing (see below). For controls, livers of the animals were removed immediately after sacrifice, divided into small pieces (~1 g), snap-frozen in liquid nitrogen, and stored at −80 °C until isolation of microsomal fractions. Pooled microsomes were used for all in vitro experiments in the present study and prepared from 10 livers/group for all animal species following established protocols. Microsomal fractions were stored at −80 °C until analysis. Protein concentrations in the microsomal fractions were assessed using the bicinchoninic acid protein assay with bovine serum albumin as a standard. […] Microsomes from livers of twelve human donors were obtained from Gentest Corp. (Woburn, MA, USA) (cat. no. HG43–1, HG103, HG74, HG93, HG24, HG27, HG23, HG32, HK31, HK34, HG03, and HG42). […]"}, "[3]": {"test_system": "human liver microsomes", "test": "Vandetanib metabolite formation by hepatic microsomes of 12 human donors", "remark": "listed apart in the source"}}, "data": [{"compound": "COc1cc2c(Nc3ccc(Br)cc3F)ncnc2cc1OCC1CCNCC1", "note": "[N-desmethylvandetanib]", "values": [{"measurement": "N-desmethylvandetanib (M1) formed", "setting": "[1]; human hepatic microsomal sample HG03", "result": "3.639 peak area/(mg protein × min)"}, {"measurement": "N-desmethylvandetanib (M1) formed", "setting": "[1]; human hepatic microsomal sample HG24", "result": "1.698 peak area/(mg protein × min)"}, {"measurement": "N-desmethylvandetanib (M1) formed", "setting": "[1]; human hepatic microsomal sample HG32", "result": "0.870 peak area/(mg protein × min)"}, {"measurement": "N-desmethylvandetanib (M1) formed", "setting": "[1]; human hepatic microsomal sample HG42", "result": "8.887 peak area/(mg protein × min)"}, {"measurement": "N-desmethylvandetanib (M1) formed", "setting": "[1]; human hepatic microsomal sample HG43", "result": "1.830 peak area/(mg protein × min)"}, {"measurement": "N-desmethylvandetanib (M1) formed", "setting": "[1]; human hepatic microsomal sample HG74", "result": "0.714 peak area/(mg protein × min)"}, {"measurement": "N-desmethylvandetanib (M1) formed", "setting": "[1]; human hepatic microsomal sample HG93", "result": "0.966 peak area/(mg protein × min)"}, {"measurement": "N-desmethylvandetanib (M1) formed", "setting": "[1]; human hepatic microsomal sample HG103", "result": "1.021 peak area/(mg protein × min)"}, {"measurement": "N-desmethylvandetanib (M1) formed", "setting": "[1]; human hepatic microsomal sample HK31", "result": "4.124 peak area/(mg protein × min)"}, {"measurement": "N-desmethylvandetanib (M1) formed", "setting": "[1]; human hepatic microsomal sample HK34", "result": "3.193 peak area/(mg protein × min)"}, {"measurement": "effect of cytochrome b5 on N-desmethylvandetanib formation", "setting": "[2]; CYP2D6 with vs without cytochrome b5", "result": "essentially no such effect"}, {"measurement": "contribution of CYP2D6 to N-desmethylvandetanib formation in human liver", "setting": "[2]; without consideration of cytochrome b5", "result": "~ 1.7%"}, {"measurement": "N-desmethylvandetanib (M1) formed", "setting": "[3]; human hepatic microsomal sample HK23", "result": "4.137 peak area/(mg protein × min)"}, {"measurement": "N-desmethylvandetanib (M1) formed", "setting": "[3]; human hepatic microsomal sample HK27", "result": "1.762 peak area/(mg protein × min)"}]}]}
